Where two headings read alike, the source gives them in different places.
Legend:
Type in all cases: in vivo
[1] = system: Southern armyworm (Spodoptera eridania), 2nd instar larvae; experiment: B.3 Southern armyworm, 2nd instar larvae, foliar spray on lima bean plants; details: 96 h, 4 days after treatment, read-out: mortality in comparison with untreated controls
Experimental: B.3 Southern Armyworm (Spodoptera eridania), 2nd Instar Larvae
The active compounds were formulated by a Tecan liquid handler in 100% cyclohexanone as a 10,000-ppm solution supplied in tubes. The 10,000-ppm solution was serially diluted in 100% cyclohexanone to make interim solutions. These served as stock solutions for which final dilutions were made by the Tecan in 50% acetone:50% water (v/v) into 10 or 20 ml glass vials. A non-ionic surfactant (Kinetic@) was included in the solution at a volume of 0.01% (v/v). The vials were then inserted into an automated electrostatic sprayer equipped with an atomizing nozzle for application to plants/insects. Lima bean plants (variety Sieva) were grown 2 plants to a pot and selected for treatment at the 1st true leaf stage. Test solutions were sprayed onto the foliage by an auto-mated electrostatic plant sprayer equipped with an atomizing spray nozzle. The plants were dried in the sprayer fume hood and then removed from the sprayer. Each pot was placed into perforated plastic bags with a zip closure. Ten to 11 armyworm larvae were placed into the bag and the bags zipped closed. Test plants were maintained in a growth room at about 25° C. and about 20-40% relative humidity for 4 days, avoiding direct exposure to fluorescent light (14:10 light:dark photoperiod) to prevent trapping of heat inside the bags. Mortality and reduced feeding were assessed 4 days after treatment, compared to untreated control plants.

[2] = system: boll weevil (Anthonomus grandis); experiment: B.2 Boll weevil, 96-well microtiter plate diet test with eggs; details: Anthonomus grandis; for mortality at 2500 ppm: 120 h, egg and larval mortality after 5 days, read-out: mortality in comparison with untreated controls
Experimental: (§1) If not otherwise specified, the test solutions were prepared as follow: The active compound was dissolved at the desired concentration in a mixture of 1:1 (vol:vol) distilled water:acetone. The test solution was prepared on the day of use.
B.2 Boll Weevil (Anthonomus grandis)
For evaluating control of boll weevil (Anthonomus grandis) the test unit consisted of 96-well-microtiter plates containing an insect diet and 5-10 A. grandis eggs.
The compounds were formulated using a solution containing 75% v/v water and 25% v/v DMSO. Different concentrations of formulated compounds were sprayed onto the insect diet at 5 μl, using a custom-built micro atomizer, at two replications.
After application, microtiter plates were incubated at about 25±1° C. and about 75±5% relative humidity for 5 days. Egg and larval mortality was then visually assessed.

[3] = system: yellow fever mosquito (Aedes aegypti); experiment: whole plant or invertebrate; details: for mortality at 90 ppm: comparative experiment C.4, read-out: B.5, 90 ppm (mortality); for mortality at 2500 ppm: 48 h, larval mortality after 2 days, read-out: mortality in comparison with untreated controls
Experimental: as §1
B.5 Yellow Fever Mosquito (Aedes aegypti)
For evaluating control of yellow fever mosquito (Aedes aegypti) the test unit consisted of 96-well-microtiter plates containing 200 μl of tap water per well and 5-15 freshly hatched A. aegypti larvae.
The active compounds were formulated using a solution containing 75% (v/v) water and 25% (v/v) DMSO. Different concentrations of formulated compounds or mixtures were sprayed onto the insect diet at 2.5 μl, using a custom-built micro atomizer, at two replications.
After application, microtiter plates were incubated at 281° C., 80±5% RH for 2 days. Larval mortality was then visually assessed.

[4] = system: green peach aphid (Myzus persicae); experiment: B.6 Green peach aphid, systemic test with artificial diet under membrane
Experimental: as §1
B.6 Green Peach Aphid (Myzus persicae)
For evaluating control of green peach aphid (Myzus persicae) through systemic means, the test unit consisted of 96-well-microtiter plates containing liquid artificial diet under an artificial membrane.
The compounds were formulated using a solution containing 75% v/v water and 25% v/v DMSO. Different concentrations of formulated compounds were pipetted into the aphid diet, using a custom built pipetter, at two replications.
After application, 5-8 adult aphids were placed on the artificial membrane inside the microtiter plate wells. The aphids were then allowed to suck on the treated aphid diet and incubated at about 23±1° C. and about 50±5% relative humidity for 3 days. Aphid mortality and fecundity was then visually assessed.

[5] = system: tobacco budworm (Heliothis virescens); experiment: B.1 Tobacco budworm, 96-well microtiter plate diet test with eggs; details: for mortality at 2500 ppm: 120 h, egg and larval mortality after 5 days, read-out: mortality in comparison with untreated controls
Experimental: as §1
B.1 Tobacco Budworm (Heliothis virescens)
For evaluating control of tobacco budworm (Heliothis virescens) the test unit consisted of 96-well-microtiter plates containing an insect diet and 15-25 H. virescens eggs.
The compounds were formulated using a solution containing 75% v/v water and 25% v/v DMSO. Different concentrations of formulated compounds were sprayed onto the insect diet at 10 μl, using a custom-built micro atomizer, at two replications.
After application, microtiter plates were incubated at about 28±1° C. and about 80±5% relative humidity for 5 days. Egg and larval mortality was then visually assessed.

[6] = 72 h, aphid mortality after 3 days, read-out: mortality in comparison with untreated controls

`CC(NC(=O)c1cc(C(F)(F)F)cc(C(F)(F)F)c1)c1nccnc1-n1cc(-c2nccs2)cn1` (stereo not shown) [I-51] was tested. Which mortality at 300 ppm [1] did it give?
The mortality at 300 ppm was ≥ 75%.

What about the mortality at 2500 ppm [2] of the same compound?
Its mortality at 2500 ppm is ≥ 75%.

What about the mortality at 90 ppm ([2]; comparative experiment C.4) of the same compound?
Its mortality at 90 ppm is 100%.

What about the mortality at 90 ppm [3] of the same compound?
The mortality at 90 ppm was 100%.

What about the mortality at 2500 ppm [3] of the same compound?
Its mortality at 2500 ppm is ≥ 75%.

What about the mortality at 30 ppm ([4]; comparative experiment C.4) of the same compound?
Its mortality at 30 ppm is 100%.

What about the mortality at 2500 ppm [4, 6] of the same compound?
Its mortality at 2500 ppm is ≥ 75%.

What about the mortality at 2500 ppm [5] of the same compound?
The mortality at 2500 ppm was ≥ 75%.

What does the source list for `CC(NC(=O)c1cc(C(F)(F)F)cc(C(F)(F)F)c1)c1nccnc1-n1ncc(-c2ccccn2)n1` (stereo not shown) [I-14, N-[1-[3-[4-(2-pyridyl)triazol-2-yl]pyrazin-2-yl]ethyl]-3,5-bis(trifluoro-methyl)benzamide]?
mortality at 300 ppm [1]: ≥ 75%; mortality at 2500 ppm [2]: ≥ 75%; mortality at 2500 ppm [3]: ≥ 75%; mortality at 30 ppm ([4]; comparative experiment C.1): 100%; mortality at 2500 ppm [4, 6]: ≥ 75%; mortality at 90 ppm ([5]; 90 ppm, comparative experiment C.1): 100%; mortality at 2500 ppm [5]: ≥ 75%

`CC(NC(=O)c1cc(C(F)(F)F)cc(C(F)(F)F)c1)c1nccnc1-n1cc(S(C)(=O)=O)cn1` (stereo not shown) [I-17, N-[1-[3-(4-methylsulfonylpyrazol-1-yl)pyrazin-2-yl]ethyl]-3,5-bis(trifluoromethyl)benzamide] was tested. Which mortality at 300 ppm [1] did it give?
The mortality at 300 ppm was ≥ 75%.

And the mortality at 2500 ppm [2]?
The mortality at 2500 ppm was ≥ 75%.

And the mortality at 90 ppm ([2]; comparative experiment C.5)?
Its mortality at 90 ppm is 100%.

And the mortality at 80 ppm ([3]; 80 ppm, comparative experiment C.5, read-out: B.5, 80 ppm (mortality))?
Its mortality at 80 ppm is 100%.

And the mortality at 2500 ppm [3]?
Its mortality at 2500 ppm is ≥ 75%.

What about the mortality at 2500 ppm ([4]; comparative experiment C.5, read-out: B.6, 2500 ppm (mortality)) of the same compound?
The mortality at 2500 ppm was 100%.

What about the mortality at 2500 ppm [4, 6] of the same compound?
Its mortality at 2500 ppm is ≥ 75%.

And the mortality at 2500 ppm [5]?
Its mortality at 2500 ppm is ≥ 75%.

`CC(NC(=O)c1cc(C(F)(F)F)cc(C(F)(F)F)c1)c1nccnc1-n1ncc(-c2cccnc2)n1` (stereo not shown) [I-8] was tested. Which mortality at 300 ppm [1] did it give?
Its mortality at 300 ppm is ≥ 75%.

And the mortality at 2500 ppm [2]?
The mortality at 2500 ppm was ≥ 75%.

What about the mortality at 2500 ppm [3] of the same compound?
Its mortality at 2500 ppm is ≥ 75%.

What about the mortality at 30 ppm ([4]; comparative experiment C.2) of the same compound?
The mortality at 30 ppm was 100%.

And the mortality at 2500 ppm [4, 6]?
The mortality at 2500 ppm was ≥ 75%.

And the mortality at 2500 ppm [5]?
Its mortality at 2500 ppm is ≥ 75%.

For `CC(NC(=O)c1cc(C(F)(F)F)cc(C(F)(F)F)c1)c1nccnc1-n1cc(-c2ccncn2)cn1` (stereo not shown) [I-42], which mortality at 300 ppm [1] is on record?
Its mortality at 300 ppm is ≥ 75%.

What about the mortality at 2500 ppm [2] of the same compound?
The mortality at 2500 ppm was ≥ 75%.

And the mortality at 90 ppm ([2]; comparative experiment C.4)?
Its mortality at 90 ppm is 100%.

And the mortality at 90 ppm [3]?
Its mortality at 90 ppm is 100%.

What about the mortality at 2500 ppm [3] of the same compound?
The mortality at 2500 ppm was ≥ 75%.

And the mortality at 30 ppm ([4]; comparative experiment C.4)?
The mortality at 30 ppm was 100%.

And the mortality at 2500 ppm [4, 6]?
Its mortality at 2500 ppm is ≥ 75%.

And the mortality at 2500 ppm [5]?
Its mortality at 2500 ppm is ≥ 75%.

From patent US20260206754A1, “HETEROARYL COMPOUNDS FOR THE CONTROL OF INVERTEBRATE PESTS” (priority 2022, published 2026)
